The first experiment deals with T1, human CH24H (Homo sapiens, UniProt Q9Y6A2).
T1 construct: Using Full-Length Mammalian Gene Collection No. 4819975 (Invitrogen) as a template; made in house; host or cells: FreeStyle 293-F cells (transient transfection with pcDNA3.1(+)/hCH24H); cell lysate supernatant
T1 sequence (Q9Y6A2 whole entry): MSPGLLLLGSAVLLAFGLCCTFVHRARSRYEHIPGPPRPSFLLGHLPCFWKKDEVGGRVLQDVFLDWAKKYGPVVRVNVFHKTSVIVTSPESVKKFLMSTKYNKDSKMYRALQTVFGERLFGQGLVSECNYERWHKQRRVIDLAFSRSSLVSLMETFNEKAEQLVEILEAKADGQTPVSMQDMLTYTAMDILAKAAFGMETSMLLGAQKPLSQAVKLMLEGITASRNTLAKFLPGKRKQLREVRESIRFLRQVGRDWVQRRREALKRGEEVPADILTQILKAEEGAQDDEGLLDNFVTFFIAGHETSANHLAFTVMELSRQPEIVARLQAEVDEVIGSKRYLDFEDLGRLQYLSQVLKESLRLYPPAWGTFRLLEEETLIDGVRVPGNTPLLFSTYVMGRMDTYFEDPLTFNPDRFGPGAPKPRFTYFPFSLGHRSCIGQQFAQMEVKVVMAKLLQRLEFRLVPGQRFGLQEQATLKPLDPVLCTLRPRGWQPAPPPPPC
Put plainly: Measurement of CH24H inhibitory activity (24-HC produced from [14C] cholesterol by human CH24H lysate). In kind it is biochemical. To be noted: 1 μM test compound, [14C] cholesterol 15 μM, 37° C. for 5 hr, read-out: Inhibitory Rate in 1 μM (%). The procedure:
A plasmid DNA for expressing human CH24H in a FreeStyle 293 cell was produced as follows. Using Full-Length Mammalian Gene Collection No. 4819975 (Invitrogen) as a template, and the following two kinds of synthesized DNAs: 5′-[…]-3′ (SEQ ID NO: 1) and 5′-[…]-3′ (SEQ ID NO: 2), PCR was performed to amplify 91-1625 bp region of human CH24H (BC022539). The obtained fragment was cloned using TOPO TA Cloning Kit (Invitrogen). The obtained fragment was subcloned to pcDNA3.1(+) digested with BamHI and XhoI to give a plasmid DNA for human CH24H expression (pcDNA3.1(+)/hCH24H).
The expression of human CH24H was performed using FreeStyle 293 Expression System (Invitrogen). According to the manual attached to FreeStyle 293 Expression System and using the plasmid DNA for human CH24H expression (pcDNA3.1(+)/hCH24H) constructed in Experimental Example 1, a transient expression using FreeStyle 293-F cell was performed. After transfection, the cells were cultured at 37° C., 8% CO2 with shaking at 125 rpm for 2 days. The cells were collected by centrifugation, and suspended in a suspension buffer (100 mM potassium phosphate (pH 7.4), 0.1 mM EDTA, 1 mM DTT, 20% Glycerol). The suspended product was disrupted by a polytron homogenizer (manufactured by Kinematica), and centrifuged at 9000×g for 10 min, and the supernatant was collected. The collected supernatant was cryopreserved (−80° C.) as a human CH24H lysate standard product.
For the measurement of CH24H inhibitory activity, using the human CH24H lysate prepared in Experimental Example 2, the amount of 24-HC produced from cholesterol by catalytic activity of CH24H was measured in the presence of a test compound, and compared with that measured in the absence of the test compound. That is, a test compound solution at various concentrations was mixed with a reaction buffer (50 mM potassium phosphate containing 0.1% BSA and Complete, EDTA-free, pH 7.4) and human CH24H lysate. Then, [^14C] cholesterol (53 mCi/mmol specific activity, 15 μM) was added, and CH24H reaction was performed at 37° C. for 5 hr. After completion of the reaction, a quenching solution consisting of chloroform/methanol/distilled water (2:2:1 v/v) was added, and the resulting 24-HC was extracted by shaking. The extract was applied to silica gel thin layer chromatography (ethyl acetate:toluene=4:6), and the obtained ^14C-24HC fraction was measured with BAS2500 (Fujifilm Corporation).
The inhibitory rate (%) was calculated from the ratio of radioactivity in the presence of a test compound relative to the radioactivity in the absence of the test compound.
`O=C(Nc1cc(-c2cnco2)cc(C(F)F)c1)C1CC1` [Example 31, N-(3-(difluoromethyl)-5-(1,3-oxazol-5-yl)phenyl)cyclopropanecarboxamide]: the inhibition at 1 µM is 90%.
The same measure, in the same setting: the result for `O=C(Nc1cc(-c2cnco2)cc(C(F)(F)F)c1)C1CC1` [Example 17, N-(3-(1,3-oxazol-5-yl)-5-(trifluoromethyl)phenyl) cyclopropanecarboxamide] reads 89%; that for `CC(=O)N1CCN(c2cc(-c3cnco3)cc(C(F)(F)F)c2)CC1` [Example 107, 1-(4-(3-(1,3-oxazol-5-yl)-5-(trifluoromethyl)phenyl)piperazin-1-yl)ethanone], 91%; that for `O=C(Nc1cc(-c2cnco2)cc(C(F)(F)F)c1)c1cccc(Cl)c1` [Example 1, 3-chloro-N-(3-(1,3-oxazol-5-yl)-5-(trifluoromethyl)phenyl)benzamide], 89%.
On the same count and under the same terms, the same measure for `O=C(N1CCc2c(-c3cnco3)cc(C(F)(F)F)cc21)N1C[C@@H]2C[C@H]1CO2` [Example 128, (1S,4S)-2-oxa-5-azabicyclo[2.2.1]hept-5-yl(4-(1,3-oxazol-5-yl)-6-(trifluoromethyl)-2,3-dihydro-1H-indol-1-yl)methanone]: 97%.
For the compound `O=C(C1CC1)N1CCc2c(-c3cnco3)cc(C(F)(F)F)cc21` [Example 36, cyclopropyl(4-(1,3-oxazol-5-yl)-6-(trifluoromethyl)-2,3-dihydro-1H-indol-1-yl)methanone], the inhibition at 1 µM came out at 92%.
On the same count and under the same terms, the same measure for `CC(C)C(=O)N1CCc2c(-c3cnco3)cc(C(F)(F)F)cc21` [Example 80, 2-methyl-1-(4-(1,3-oxazol-5-yl)-6-(trifluoromethyl)-2,3-dihydro-1H-indol-1-yl)propan-1-one]: 91%.
The same measure, in the same setting: the same measure for `O=C(Nc1cc2c(c(-c3cnco3)c1)OCC2)C1CC1` [Example 58, N-(7-(1,3-oxazol-5-yl)-2,3-dihydro-1-benzofuran-5-yl)cyclopropanecarboxamide]: 84%; for `OC1CCN(c2cc(C(F)(F)F)cc(-c3cnco3)n2)C1` (stereo not drawn) [Example 96, 1-(6-(1,3-oxazol-5-yl)-4-(trifluoromethyl)pyridin-2-yl)pyrrolidin-3-ol]: 91%.
On the same count and under the same terms, the result for `O=C(C1CC1)N1CCCOc2c(-c3cnco3)cc(C(F)(F)F)cc21` [Example 53, cyclopropyl(9-(1,3-oxazol-5-yl)-7-(trifluoromethyl)-3,4-dihydro-1,5-benzoxazepin-5(2H)-yl)methanone] reads 52%; that for `FC(F)(F)c1cc(NCc2ccccn2)cc(-c2cnco2)c1` [Example 56, 3-(1,3-oxazol-5-yl)-N-(pyridin-2-ylmethyl)-5-(trifluoromethyl)aniline], 88%; that for `CS(=O)(=O)NC1CCN(c2cc(-c3cnco3)cc(C(F)(F)F)c2)C1` (stereo not drawn) [Example 119, N-(1-(3-(1,3-oxazol-5-yl)-5-(trifluoromethyl)phenyl)pyrrolidin-3-yl)methanesulfonamide], 95%.
For `O=C(Nc1cc(C(F)(F)F)cc(-c2cnco2)n1)C1CC1` [Example 61, N-(6-(1,3-oxazol-5-yl)-4-(trifluoromethyl)pyridin-2-yl)cyclopropanecarboxamide], the inhibition at 1 µM was found to be 88%.
The same measure, in the same setting: the same measure for `O[C@H]1CCN(c2cc(-c3cnco3)cc(C(F)(F)F)c2)C1` [Example 95, (3S)-1-(3-(1,3-oxazol-5-yl)-5-(trifluoromethyl)phenyl)pyrrolidin-3-ol]: 96%; for `OC1CN(c2cc(-c3cnco3)cc(C(F)(F)F)c2)CCC1Cc1ccccc1` (stereo not drawn) [Example 100, 4-benzyl-1-(3-(1,3-oxazol-5-yl)-5-(trifluoromethyl)phenyl)piperidin-3-ol]: 97%; for `O=C(C1CC1)N1CCOc2c(-c3cnco3)cc(C(F)(F)F)cc21` [Example 54, cyclopropyl(8-(1,3-oxazol-5-yl)-6-(trifluoromethyl)-2,3-dihydro-4H-1,4-benzoxazin-4-yl)methanone]: 92%.
As to `O=C(Cn1ccnc1)Nc1cc(-c2cnco2)cc(C(F)(F)F)c1` [Example 43, 2-(1H-imidazol-1-yl)-N-(3-(1,3-oxazol-5-yl)-5-(trifluoromethyl)phenyl)acetamide], the inhibition at 1 µM is 90%.
Turning to `CC1(C)CCN(c2cc(C(F)(F)F)cc(-c3cnco3)n2)C1=O` [Example 134, 3,3-dimethyl-1-(6-(1,3-ozazol-5-yl)-4-(trifluoromethyl)pyridin-2-yl)pyrrolidin-2-one], the inhibition at 1 µM was 89%.
As for `O=C(N1CCOCC1)N1CCc2c(-c3cnco3)cc(C(F)(F)F)cc21` [Example 83, morpholin-4-yl(4-(1,3-oxazol-5-yl)-6-(trifluoromethyl)-2,3-dihydro-1H-indol-1-yl)methanone], the inhibition at 1 µM stood at 92%.
The same measure, in the same setting: the result for `CC1(C)CCN(c2cc(-c3cnco3)cc(C(F)(F)F)c2)C1=O` [Example 127, 3,3-dimethyl-1-(3-(1,3-oxazol-5-yl)-5-(trifluoromethyl)phenyl)pyrrolidin-2-one] reads 91%.
Consider `OC1(Cc2ccccc2)CCN(c2cc(-c3cnco3)cc(C(F)(F)F)c2)CC1` [Example 92, 4-benzyl-1-(3-(1,3-oxazol-5-yl)-5-(trifluoromethyl)phenyl)piperidin-4-ol], for which the inhibition at 1 µM amounted to 89%.
Same read-out and setting: the same measure for `O=C(C1CCOCC1)N1CCc2c(-c3cnco3)cc(C(F)(F)F)cc21` [Example 87, (4-(1,3-oxazol-5-yl)-6-(trifluoromethyl)-2,3-dihydro-1H-indol-1-yl)(tetrahydro-2H-pyran-4-yl)methanone]: 97%; for `O=S(=O)(Nc1cc2c(c(-c3cnco3)c1)OCC2)c1cccc(Cl)c1` [Example 10, 3-chloro-N-(7-(1,3-oxazol-5-yl)-2,3-dihydro-1-benzofuran-5-yl)benzenesulfonamide]: 83%; for `FC1(F)CCN(c2cc(-c3cnco3)cc(C(F)(F)F)c2)CC1` [Example 89, 4,4-difluoro-1-(3-(1,3-oxazol-5-yl)-5-(trifluoromethyl)phenyl)piperidine]: 93%.
The same measure, in the same setting: the same measure for `O=C(Nc1cc(-c2cnco2)cc(C2CC2)c1)c1cccc(Cl)c1` [Example 5, 3-chloro-N-(3-cyclopropyl-5-(1,3-oxazol-5-yl)phenyl)benzamide]: 79%; for `CC(C)c1cc(NS(=O)(=O)c2cccc(Cl)c2)cc(-c2cnco2)c1` [Example 4, 3-chloro-N-(3-isopropyl-5-(1,3-oxazol-5-yl)phenyl)benzenesulfonamide]: 89%.

In a further experiment the test system is 24-HC in the brain. Put plainly: Quantification test of 24-HC in mouse brain after repeated oral administration. It counts as in vivo. Conditions: 10 mg/kg orally once a day for 3 days; female C57BL/6N mice; brain 24-HC at 16 hours after the third administration; relative values with the control group as 100%. The procedure: Animals used were 6-week-old female C57BL/6N mice (3 mice/group). A test compound was suspended in a 0.5% aqueous methylcellulose [133-14255 WAKO] solution (1 mg/mL). The body weight of the mice was measured, and the solution was forcibly administered orally and repeatedly once a day for 3 days. At 16 hours after the third administration, half of the brain was harvested, and the amount of 24-HC was measured.
The wet weight of the brain was measured, and the brain was homogenized with 4-fold amount of saline. This solution was used as a brain extract. The 24-HC in the brain extract was extracted with an acetonitrile solution (98% acetonitrile, 1.98% methanol, 0.02% formic acid), and quantified by HPLC. The average value of 24-HC amount was calculated and the results are shown in relative values with the control group as 100%.
Turning to `O=C(Nc1cc(-c2cnco2)cc(C(F)(F)F)c1)C1CC1` [Example 17, N-(3-(1,3-oxazol-5-yl)-5-(trifluoromethyl)phenyl) cyclopropanecarboxamide], the “Decreasing Rate in 10 mg/kg (%)” value is 80%.
On the same count and under the same terms, the same measure for `O=C(C1CC1)N1CCc2c(-c3cnco3)cc(C(F)(F)F)cc21` [Example 36, cyclopropyl(4-(1,3-oxazol-5-yl)-6-(trifluoromethyl)-2,3-dihydro-1H-indol-1-yl)methanone]: 73%.

The experiment is the same for the next values; noted with them: 30 mg/kg orally once a day for 3 days; female C57BL/6N mice; brain 24-HC at 16 hours after the third administration; relative values with the control group as 100%.
For the compound `O[C@H]1CCN(c2cc(-c3cnco3)cc(C(F)(F)F)c2)C1` [Example 95, (3S)-1-(3-(1,3-oxazol-5-yl)-5-(trifluoromethyl)phenyl)pyrrolidin-3-ol], the “Decreasing Rate in 30 mg/kg (%)” value was 66%.
For the compound `O=C(C1CCOCC1)N1CCc2c(-c3cnco3)cc(C(F)(F)F)cc21` [Example 87, (4-(1,3-oxazol-5-yl)-6-(trifluoromethyl)-2,3-dihydro-1H-indol-1-yl)(tetrahydro-2H-pyran-4-yl)methanone], the “Decreasing Rate in 30 mg/kg (%)” value turned out to be 56%.

Source of the values: patent US9624184B2, “Heterocyclic compound” (TAKEDA PHARMACEUTICAL COMPANY LIMITED, priority 2013, dated 2017).
